Measured values published in article PMC3197222 (Journal of the American Chemical Society, 2009).
“Also recorded” adds a separate entry of the source.

Assays:
DNase [1] = test: Phage-based ELISA of phage-displayed DNase ligands; type: binding; conditions: for binding to DNase, unwrapped phage-displayed ligand: absence of 1-ext wrapper, versus M13-KO7 phage; for binding affinity and specificity for DNase, phage-displayed: phage-based ELISA (Figure 5); for binding to DNase, wrapped phage-displayed ligand: wrapped with 1-ext (2.5 µM), versus M13-KO7 phage control
DNase [2] = test: SPR imaging of phage-displayed DNase-1 adsorption; type: binding; conditions: phage-displayed DNase-1, 2.5 nM phage wrapped in 2.5 µM polymer 1 in PBS (Figure S2)
DNase [3] = conditions: selected with Lys18-wrapped phage library; ref [15]; cited from earlier work

Sequence	binding to DNase, unwrapped phage-displayed ligand (DNase [1])	binding affinity and specificity for DNase, phage-displayed (DNase [1])	binding to DNase, wrapped phage-displayed ligand (DNase [1])	SPR imaging binding to DNase (DNase [2])	DNase ligand (previous report) (DNase [3])
EEWYCLRQGTFETLFF [DNase-2]	stronger binding to DNase than the negative control M13-KO7 phage	moderate to high affinity binding and specificity for DNase	bound with higher affinity to DNase than the M13-KO7 phage control, with DNase-2 having much greater apparent affinity; also recorded: strong binding to DNase was retained	–	–
RWCLSELSG [DNase-1]	stronger binding to DNase than the negative control M13-KO7 phage	moderate to high affinity binding and specificity for DNase	bound with higher affinity to DNase than the M13-KO7 phage control	binds well to the target DNase	–
EEWYCLRQGTFETLYCFW [DNase-L]	–	–	–	–	DNase ligand
